In patent publication US5618681A, “Polyaromatic hydrocarbon (PAH) immunoassay method, its components and a kit for use in performing the same” (priority 1995, dated 1997):

Tested on: anti-PAH monoclonal antibody
Assay: PAH immunoassay (competitive, antibody coated tubes): cross-reactivity with the anti-PAH monoclonal antibody
Type: binding, Balb/c mice
Details: for Percent Cross-Reactivity: phenanthrene 100%; for detection in the immunoassay: at 200 ppm levels
Procedure: Female Balb/c mice received a primary subcutaneous immunization with 50 ug of β-methylnaphthalene derivatized to bovine serum albumin in adjuvant (MPL+TDM Emulsion, RIBI Immunochem Research, Inc., Hamilton, Mont.). Subcutaneous secondary injections (25 ug) were given at day 21, 35, and then monthly. […] Hybridoma cultures producing monoclonal antibodies recognizing free hapten by EIA were cloned by limiting dilution.
Antibody coated tubes were prepared by passively coating polystyrene (12X75 mm, NUNC) tubes with the monoclonal F12-3C8 antibody diluted in PBS and incubating overnight. The NUNC polystyrene tubes were rinsed with hexane prior to use and were all from the same lot.
10 g of a soil sample were placed in an extraction vial containing 20 mL of methanol and 5 steel pellets (6 mm) and the vial and its contents shaken for 1 minute to disperse the soil particles and extract the PAHs. The sample was then filtered to clarify the sample extract using a glass fiber depth filter and a 0.45μ Teflon filter. 45 uL of the clarified filtrate sample was mixed with 955 μl of 10 mM PBS (pH=7.4) and the resulting mixture added to lyophilized enzyme conjugate reagent (0.3 μg) and mixed. At the same time, 2×45 uL of the phenanthrene standard are similarly treated. The sample and the two standards were then poured into three identical antibody coated tubes, respectively, and the resulting solution mixed. The resulting solution was incubated for 10 minutes at ambient temperature and then washed 4X with a wash buffer (detergent-saline solution). 250 uL of tetramethylbenzidene solution (KP Laboratories, Cat. No. 50-76-02) was added along with 250 uL of hydrogen peroxide solution (KPL, Cat. No. 50-65-02) and the resultant solution mixed. After incubating for 2.5 minutes the color development reaction was stopped with 250 uL of stop solution (1M sulfuric acid).
The optical density (OD) of the test sample was compared to the OD of the phenanthrene standard (0.65 ppm soil equivalents) which was tested simultaneously with the sample. If the sample OD is less than the standard OD, the sample contains more than 1 ppm PAH. […] Other concentration ranges can be assessed by diluting the test samples with suitable diluents, as long as they are non-reactive with the components of the assay.
In addition other potentially cross-reactive compounds were tested.

[1] = Non-EPA PAHs and other compounds

c1ccc2ccccc2c1 [Naphthalene]
Percent Cross-Reactivity (Method 8310 EPA PAHs): 0.5%
Concentration Giving A Positive Result (ppm, soil equivalent) (Method 8310 EPA PAHs): 200 ppm

c1cc2ccc3ccc4ccc5cccc6c(c1)c2c3c4c56 [Benzo(ghi)perylene]
Percent Cross-Reactivity (Method 8310 EPA PAHs): < 0.5%
Concentration Giving A Positive Result (ppm, soil equivalent) (Method 8310 EPA PAHs): > 200 ppm

c1cc2c3c(cccc3c1)CC2 [Acenaphthene]
Percent Cross-Reactivity (Method 8310 EPA PAHs): 12%
Concentration Giving A Positive Result (ppm, soil equivalent) (Method 8310 EPA PAHs): 8.1 ppm

Oc1ccccc1 [Phenol]
Percent Cross-Reactivity [1]: < 0.5%
Concentration Giving a Positive Result (ppm, soil equivalent) [1]: > 200 ppm
detection in the immunoassay: not detected

Clc1cc(Cl)cc(Cl)c1 [2,4,6-Trichlorobenzene]
Percent Cross-Reactivity [1]: < 0.5%
Concentration Giving a Positive Result (ppm, soil equivalent) [1]: > 200 ppm

Cc1ccc2ccccc2c1 [2-methylnaphthalene]
Percent Cross-Reactivity [1]: 1.7%
Concentration Giving a Positive Result (ppm, soil equivalent) [1]: 58 ppm

C1=Cc2cccc3cccc1c23 [Acenaphthylene]
Percent Cross-Reactivity (Method 8310 EPA PAHs): 13%
Concentration Giving A Positive Result (ppm, soil equivalent) (Method 8310 EPA PAHs): 7.5 ppm

c1ccc2cc3c(ccc4ccccc43)cc2c1 [Benzo(a)anthracene]
Percent Cross-Reactivity (Method 8310 EPA PAHs): 64%
Concentration Giving A Positive Result (ppm, soil equivalent) (Method 8310 EPA PAHs): 1.6 ppm

c1ccc2c(c1)oc1ccccc12 [Dibenzofuran]
Percent Cross-Reactivity [1]: 7.2%
Concentration Giving a Positive Result (ppm, soil equivalent) [1]: 14 ppm

c1ccc2c(c1)ccc1ccccc12 [Phenanthrene, reference compound]
Percent Cross-Reactivity (Method 8310 EPA PAHs): 100%
Concentration Giving A Positive Result (ppm, soil equivalent) (Method 8310 EPA PAHs): 1.0 ppm

c1ccc2c(c1)ccc1cc3c(ccc4ccccc43)cc12 [Dibenzo(a,h)anthracene]
Percent Cross-Reactivity (Method 8310 EPA PAHs): < 0.5%
Concentration Giving A Positive Result (ppm, soil equivalent) (Method 8310 EPA PAHs): > 200 ppm

CCCCC(CC)COC(=O)c1ccccc1C(=O)OCC(CC)CCCC (centres unmarked) [Bis(2-ethylhexyl) phthalate]
Percent Cross-Reactivity [1]: < 0.5%
Concentration Giving a Positive Result (ppm, soil equivalent) [1]: > 200 ppm

c1ccc2c(c1)Cc1ccccc1-2 [Fluorene]
Percent Cross-Reactivity (Method 8310 EPA PAHs): 67%
Concentration Giving A Positive Result (ppm, soil equivalent) (Method 8310 EPA PAHs): 1.5 ppm

Oc1c(Cl)c(Cl)c(Cl)c(Cl)c1Cl [Pentachlorophenol]
Percent Cross-Reactivity [1]: < 0.5%
Concentration Giving a Positive Result (ppm, soil equivalent) [1]: > 200 ppm

Cc1cccc2ccccc12 [1-methylnaphthalene]
Percent Cross-Reactivity [1]: 1.8%
Concentration Giving a Positive Result (ppm, soil equivalent) [1]: 54 ppm

c1ccccc1 [Benzene]
Percent Cross-Reactivity [1]: < 0.5%
Concentration Giving a Positive Result (ppm, soil equivalent) [1]: > 200 ppm
detection in the immunoassay: not detected

c1ccc2c(c1)-c1cccc3c1c-2cc1ccccc13 [Benzo(b)fluoranthene]
Percent Cross-Reactivity (Method 8310 EPA PAHs): 22%
Concentration Giving A Positive Result (ppm, soil equivalent) (Method 8310 EPA PAHs): 4.6 ppm

c1ccc2c(c1)-c1ccc3ccc4cccc5cc-2c1c3c45 [Indeno(1,2,3-cd)pyrene]
Percent Cross-Reactivity (Method 8310 EPA PAHs): 9.4%
Concentration Giving A Positive Result (ppm, soil equivalent) (Method 8310 EPA PAHs): 11 ppm

c1ccc2cc3ccccc3cc2c1 [Anthracene]
Percent Cross-Reactivity (Method 8310 EPA PAHs): 123%
Concentration Giving A Positive Result (ppm, soil equivalent) (Method 8310 EPA PAHs): 0.81 ppm

c1ccc2c(c1)cc1ccc3cccc4ccc2c1c34 [Benzo(a)pyrene]
Percent Cross-Reactivity (Method 8310 EPA PAHs): 12%
Concentration Giving A Positive Result (ppm, soil equivalent) (Method 8310 EPA PAHs): 8.3 ppm
concentration in soil at which the PAH immunoassay will provide a positive result (in soils): ≥ 8.3 ppm

c1ccc2cc3c(cc2c1)-c1cccc2cccc-3c12 [Benzo(k)fluoranthene]
Percent Cross-Reactivity (Method 8310 EPA PAHs): 11%
Concentration Giving A Positive Result (ppm, soil equivalent) (Method 8310 EPA PAHs): 9.4 ppm

c1cc2ccc3cccc4ccc(c1)c2c34 [Pyrene]
Percent Cross-Reactivity (Method 8310 EPA PAHs): 29%
Concentration Giving A Positive Result (ppm, soil equivalent) (Method 8310 EPA PAHs): 3.5 ppm

Cc1ccccc1 [Toluene]
Percent Cross-Reactivity [1]: < 0.5%
Concentration Giving a Positive Result (ppm, soil equivalent) [1]: > 200 ppm

c1ccc2c(c1)-c1cccc3cccc-2c13 [Fluoranthene]
Percent Cross-Reactivity (Method 8310 EPA PAHs): 73%
Concentration Giving A Positive Result (ppm, soil equivalent) (Method 8310 EPA PAHs): 1.4 ppm

c1ccc2c(c1)ccc1c3ccccc3ccc21 [Chrysene]
Percent Cross-Reactivity (Method 8310 EPA PAHs): 84%
Concentration Giving A Positive Result (ppm, soil equivalent) (Method 8310 EPA PAHs): 1.2 ppm

Clc1cc(Cl)c(Cl)c(Cl)c1Cl [Pentachlorobenzene]
Percent Cross-Reactivity [1]: < 0.5%
Concentration Giving a Positive Result (ppm, soil equivalent) [1]: > 200 ppm

Clc1cc(Cl)c(Cl)cc1Cl [2,3,5,6-Tetrachlorobenzene]
Percent Cross-Reactivity [1]: < 0.5%
Concentration Giving a Positive Result (ppm, soil equivalent) [1]: > 200 ppm

Clc1cccc2ccccc12 [1-chloronaphthalene]
Percent Cross-Reactivity [1]: 1.7%
Concentration Giving a Positive Result (ppm, soil equivalent) [1]: 59 ppm
